Data on 3 compounds can be found in ChEMBL document CHEMBL1629414, “A neuroprotective sulfone of marine origin and the in vivo anti-inflammatory activity of an analogue” (Eur J Med Chem, 2010).

Data set [1] has as its system Rattus norvegicus. Kind of data set: Antiatherosclerotic activity against balloon injury-induced angioplasty in Wistar rat assessed as inhibition of neointimal proliferation at 3 mg/kg/day, sc relative to control. It is filed as functional. Details: scale not given: the % may be the effect or the level left. The following applies: route subcutaneous.
The test system of data set [2] is Rattus norvegicus. Briefly: Protection against encephalomyelitis-induced clinical signs in Lewis rat preimmunized with Freund's complete adjuvant at 30 ug/kg, administered intrathecally bid for 5 days from day 7 after immunization. It is filed as functional, organism-based.
Data set [3] concerns Rattus norvegicus. Kind of data set: Toxicity in Lewis rat assessed as neurological deffects at 30 ug/kg, administered intrathecally bid for 5 days. Type of data set: organism-based. The following applies: in vivo, icv_or_intrathecal, 0.03 mg/kg, 120 h.
The test system of data set [4] is Rattus norvegicus. Briefly: Antinociceptive activity in chronic constriction injury neuropathic pain Wistar rat model assessed as reduction of paw withdrawal latency at 5 ug, administered intrathecally after 20 to 120 mins. Type of data set: functional, organism-based.
The subject of data set [5] is RAW264.7. Kind of data set: Cytotoxicity against mouse RAW264.7 cells assessed as inhibition of beta-actin expression at 50 uM by Western blotting. Type of data set: cell-based. Particulars: raw264.7, 50 µM. Background: In western blotting, separated proteins are transferred to a membrane and probed.
The test system of data set [6] is SH-SY5Y. Briefly: Neuroprotective activity in human SH-SY5Y cells assessed as protection against 6-OHDA-induced cytotoxicity at 1 uM pretreated 1 hr before 6-OHDA challenge measured after 15 hrs by Alamar blue assay. It is filed as functional, cell-based. In general terms: The colour change of resazurin is a common sign of viable cells or microbes.
Data set [7] concerns Rattus norvegicus. Kind of data set: Antinociceptive activity in intrathecally dosed chronic constriction injury neuropathic pain Wistar rat model assessed as reduction of paw withdrawal latency measured up to 120 mins. Type of data set: functional.
Data set [8] deals with Rattus norvegicus. Kind of data set: Antinociceptive activity in chronic constriction injury neuropathic pain Wistar rat model assessed as reduction of paw withdrawal latency at 0.1 to 5 ug, administered intrathecally after 20 mins. It is filed as functional, organism-based.
For data set [9], the system named is RAW264.7. Kind of data set: Antiinflammatory activity in mouse RAW264.7 cells assessed as inhibition of LPS-induced expression of iNOS after treated 10 mins before LPS challenge measured after 16 hrs by Western blotting. Type of data set: functional, cell-based.
Data set [10] relates to Rattus norvegicus. Kind of data set: Toxicity in chronic constriction injury neuropathic pain Wistar rat model assessed as effect on locomotor activity at 0.1 to 5 ug, administered intrathecally. The following applies: in vivo, icv_or_intrathecal. Type of data set: organism-based.
For data set [11], the system named is RAW264.7. Briefly: Antiinflammatory activity in mouse RAW264.7 cells assessed as inhibition of LPS-induced expression of COX-2 treated 10 mins before LPS challenge measured after 16 hrs by Western blotting. Type of data set: functional, cell-based.
Data set [12] deals with SH-SY5Y. Kind of data set: Neuroprotective activity in human SH-SY5Y cells assessed as protection against 6-OHDA-induced cytotoxicity pretreated 1 hr before 6-OHDA challenge measured after 15 hrs by Alamar blue assay. Type of data set: functional.
For data set [13], the system named is RAW264.7. Kind of data set: Cytotoxicity against mouse RAW264.7 cells assessed as inhibition of beta-actin expression at 30 uM by Western blotting. It is filed as cell-based. The following applies: raw264.7, 30 µM.
Data set [14] in a line: Solubility of the compound in water. It is filed as physicochemical.
Data set [15] has as its system RAW264.7. Kind of data set: Antiinflammatory activity in mouse RAW264.7 cells assessed as inhibition of LPS-induced expression of iNOS at 10 uM treated 10 mins before LPS challenge measured after 16 hrs by Western blotting relative to control. It is filed as functional. Details: scale not given: the % may be the effect or the level left.
For data set [16], the system named is RAW264.7. Briefly: Antiinflammatory activity in mouse RAW264.7 cells assessed as inhibition of LPS-induced expression of COX2 at 10 uM treated 10 mins before LPS challenge measured after 16 hrs by Western blotting relative to control. Type of data set: functional. Details: scale not given: the % may be the effect or the level left.

The structures appear in SMILES notation. pEC50, pIC50: −log10 of the molar value. Activity calls are given as the source filed them. The calls are words filed in the database; no cut-off is given here.

Turning to `CC(=O)CCS(=O)(=O)CCO`, the Activity in data set [1] is 98.1%; in data set [3], “Non-toxic”; in data set [5], “Toxic”; in data set [10], “Non-toxic”. Further, the outcome in data set [2], in data set [4] and in [8] was Active. Also, in data set [6], the outcome was inactive. In addition, the ED50 in data set [7] was 0.75 µg. The pIC50 (in general, the negative decadic logarithm of the IC50, by convention in mol/L) in data set [9] was 5.44; in data set [11] it was 4.49.
In the case of `C=CS(=O)(=O)CCC(C)=O` [AUSTRASULFONE], the Activity entry was “Dose-dependent effect” in data set [12] and “Toxic” in data set [13]. For the same compound, in data set [12] (read-out: ED50 (the source's name)), the pEC50 was 7.96. Moreover, the solubility (commonly the dissolved amount per volume that the medium holds) in data set [14] was greater than 50 mg/mL.
`CC(=O)CCSCCO`: the Activity in data set [15] came out at 59.5%; in data set [16], 91.2%.
